Results from US20070173462A1, “Treatment of diseases associated with the use of antibiotics” (Optimer Pharmaceuticals, Inc., priority 2004, published 2007).
Values after ≈ are worked out from the molar mass of the structure shown. Where two headings read alike, the source gives them in different places.

Assays:
[1] = test system: toxigenic C. difficile; test: Hamster model of clindamycin-induced Clostridium difficile associated diarrhea/colitis; assay type: in vivo, Syrian hamsters; settings: oral treatment for 7 days; untreated infection uniformly fatal between days two and six
Procedure: Animals were treated with two oral doses of clindamycin at 100 mg/kg. Three days after the second dose of clindamycin, they were inoculated with toxigenic C. difficile spores. […] Animals were observed daily for the presence or absence of diarrhea. Necropsies were performed on some animals that died during the experiment, and cecal contents were assayed for C. difficile toxin A. Hamsters were monitored for 20 days, and the cumulative mortality during this period was recorded (FIG. 1).

[2] = test system: C. difficile; test: MIC via agar dilution, 110 genetically distinct clinical isolates of C. difficile; assay type: cell-based

Compound: Cc1ncc([N+](=O)[O-])n1CCO [Metronidazole]
- protection from infection (cumulative mortality over 20 days) [1]: protected the animals from infection
- Range (MIC) ([2]; 110 clinical isolates, agar dilution): 0.025 to 0.5 µg/mL
- MIC ([2]; Clostridioides difficile, isolate ORG ID 61 5930, read-out: MIC): 0.25 µg/mL (≈ 1.46 µM)
- MIC ([2]; Clostridioides difficile, isolate ORG ID 63 6029, read-out: MIC): 0.25 µg/mL (≈ 1.46 µM)
- MIC ([2]; Clostridioides difficile, isolate ORG ID 64 5940, read-out: MIC): 0.25 µg/mL (≈ 1.46 µM)
- MIC ([2]; Clostridioides difficile, isolate ORG ID 65 5967, read-out: MIC): 0.25 µg/mL (≈ 1.46 µM)
- MIC ([2]; Clostridioides difficile, isolate ORG ID 67 6367, read-out: MIC): 0.25 µg/mL (≈ 1.46 µM)
- MIC ([2]; Clostridioides difficile, isolate ORG ID 69 6370, read-out: MIC): 0.25 µg/mL (≈ 1.46 µM)
- MIC ([2]; Clostridioides difficile, isolate ORG ID 70 6376, read-out: MIC): 0.25 µg/mL (≈ 1.46 µM)
- MIC ([2]; Clostridioides difficile, isolate ORG ID 71 6379, read-out: MIC): 0.25 µg/mL (≈ 1.46 µM)
- MIC ([2]; Clostridioides difficile, isolate ORG ID 72 6380, read-out: MIC): 0.25 µg/mL (≈ 1.46 µM)
- MIC ([2]; Clostridioides difficile, isolate ORG ID 73 6382, read-out: MIC): 0.25 µg/mL (≈ 1.46 µM)
- MIC ([2]; Clostridioides difficile, isolate ORG ID 76 6389, read-out: MIC): 0.25 µg/mL (≈ 1.46 µM)
- MIC ([2]; Clostridioides difficile, isolate ORG ID 78 6392, read-out: MIC): 0.03 µg/mL (≈ 0.175 µM)
- MIC ([2]; Clostridioides difficile, isolate ORG ID 82 6329, read-out: MIC): 0.03 µg/mL (≈ 0.175 µM)
- MIC ([2]; Clostridioides difficile, isolate ORG ID 84 6331, read-out: MIC): 0.25 µg/mL (≈ 1.46 µM)
- MIC ([2]; Clostridioides difficile, isolate ORG ID 88 6335, read-out: MIC): 0.25 µg/mL (≈ 1.46 µM)
- MIC ([2]; Clostridioides difficile, isolate ORG ID 89 6336, read-out: MIC): 0.5 µg/mL (≈ 2.92 µM)
- MIC ([2]; Clostridioides difficile, isolate ORG ID 94 6343, read-out: MIC): 0.06 µg/mL (≈ 0.351 µM)
- MIC ([2]; Clostridioides difficile, isolate ORG ID 98 6350, read-out: MIC): 0.5 µg/mL (≈ 2.92 µM)
- MIC ([2]; Clostridioides difficile, isolate ORG ID 100 6353, read-out: MIC): 0.25 µg/mL (≈ 1.46 µM)
- MIC ([2]; Clostridioides difficile, isolate ORG ID 101 6354, read-out: MIC): 0.06 µg/mL (≈ 0.351 µM)
- MIC ([2]; Clostridioides difficile, isolate ORG ID 104 6060, read-out: MIC): 0.25 µg/mL (≈ 1.46 µM)
- MIC ([2]; Clostridioides difficile, isolate ORG ID 106 6078, read-out: MIC): 0.25 µg/mL (≈ 1.46 µM)
- MIC ([2]; Clostridioides difficile, isolate ORG ID 115 5985, read-out: MIC): 0.25 µg/mL (≈ 1.46 µM)
- MIC ([2]; Clostridioides difficile, isolate ORG ID 120 6057, read-out: MIC): 0.25 µg/mL (≈ 1.46 µM)
- MIC ([2]; Clostridioides difficile, isolate ORG ID 121 6072, read-out: MIC): 0.25 µg/mL (≈ 1.46 µM)
- MIC ([2]; Clostridioides difficile, isolate ORG ID 122 6111, read-out: MIC): 0.25 µg/mL (≈ 1.46 µM)
- MIC ([2]; Clostridioides difficile, isolate ORG ID A1 1535, read-out: MIC): 0.25 µg/mL (≈ 1.46 µM)
- MIC ([2]; Clostridioides difficile, isolate ORG ID AH1 3430, read-out: MIC): 0.25 µg/mL (≈ 1.46 µM)
- MIC ([2]; Clostridioides difficile, isolate ORG ID BE1 4307, read-out: MIC): 0.25 µg/mL (≈ 1.46 µM)
- MIC ([2]; Clostridioides difficile, isolate ORG ID BH1 4506, read-out: MIC): 0.06 µg/mL (≈ 0.351 µM)
- MIC ([2]; Clostridioides difficile, isolate ORG ID BN1 1322, read-out: MIC): 0.25 µg/mL (≈ 1.46 µM)
- MIC ([2]; Clostridioides difficile, isolate ORG ID BV1 1183, read-out: MIC): 0.25 µg/mL (≈ 1.46 µM)
- MIC ([2]; Clostridioides difficile, isolate ORG ID BX1 4271, read-out: MIC): 0.25 µg/mL (≈ 1.46 µM)
- MIC ([2]; Clostridioides difficile, isolate ORG ID CJ1 893, read-out: MIC): 0.025 µg/mL (≈ 0.146 µM)
- MIC ([2]; Clostridioides difficile, isolate ORG ID CN1 667, read-out: MIC): 0.25 µg/mL (≈ 1.46 µM)
- MIC ([2]; Clostridioides difficile, isolate ORG ID CP1 5491, read-out: MIC): 0.25 µg/mL (≈ 1.46 µM)
- MIC ([2]; Clostridioides difficile, isolate ORG ID D1 1360, read-out: MIC): 0.25 µg/mL (≈ 1.46 µM)
- MIC ([2]; Clostridioides difficile, isolate ORG ID J1 5971, read-out: MIC): 0.25 µg/mL (≈ 1.46 µM)
- MIC ([2]; Clostridioides difficile, isolate ORG ID K1 4305, read-out: MIC): 0.25 µg/mL (≈ 1.46 µM)
- MIC ([2]; Clostridioides difficile, isolate ORG ID R6 6015, read-out: MIC): 0.25 µg/mL (≈ 1.46 µM)
- MIC ([2]; Clostridioides difficile, isolate ORG ID W1 3931, read-out: MIC): 0.5 µg/mL (≈ 2.92 µM)
- MIC90 ([2]; Clostridioides difficile, 110 clinical isolates, agar dilution): 0.25 µg/mL (≈ 1.46 µM)
- MIC ([2]; Clostridioides difficile, 110 clinical isolates, agar dilution, read-out: Geometric Mean (MIC)): 0.15 µg/mL (≈ 0.876 µM)
